# Source: patent publication US12172990B2 (Constellation Pharmaceuticals, Inc., priority 2018, dated 2024)
# Columns and labels:
# [1] = biological target: human TREX2 (residues M44-A279) (Homo sapiens (Human), UniProt Q9BQ50); test: TREX2 Biochemical Assay (fluorescence assay measuring degradation of dsDNA substrate); conditions: 2.5 nM TREX2, 60 nM dsDNA substrate, 25 minutes at room temperature
# Protocol: Degradation of the dsDNA liberates free fluorophore to produce a fluorescent signal. Specifically, 7.5 μL of N-terminally His-Tev tagged human TREX2 (residues M44-A279, expressed in E. coli and purified in house) in reaction buffer (50 mM Tris (pH 7.4), 150 mM NaCl, 2 mM DTT, 0.1 mg/mL BSA, 0.01% (v/v) Tween-20 and 100 mM MgCl2) was added to a 384-well Black ProxiPlate Plus (Perkin Elmer) which already contained compound (150 nL) at varying concentrations as a 10 point dose-response in DMSO. To this was added 7.5 μL of dsDNA substrate (Strand A: 5′ TEX615/GCT AGG CAG 3′; Strand B: 5′ CTG CCT AGC/IAbRQSp (IDT)) in reaction buffer. Final concentrations were 2.5 nM TREX2, 60 nM dsDNA substrate in reaction buffer with 1.0% DMSO (v/v). After 25 minutes at room temperature, reactions were quenched by the addition of 5 μL of stop buffer (same as reaction buffer plus 200 mM EDTA). Final concentrations in the quenched reaction mixture were […] TREX2, 45 nM DNA and 50 mM EDTA in a volume of 20 μL. After a 5-minute incubation at room temperature, plates were read in a laser sourced Envision (Perkin-Elmer), measuring fluorescence at 615 nm following excitation w/570 nm light. IC50 values were calculated by comparing the measured fluorescence at 615 nm ratio relative to control wells pre-quenched w/stop buffer (100% inhibition) and no inhibitor (0% inhibition) controls as using non-linear least square four parameter fits and either Genedata or GraphPad Prism (GraphPad Software, Inc.).
# full length human TREX1 = full length human TREX1 (Homo sapiens (Human), UniProt Q9NSU2); test: TREX1 Biochemical Assay (fluorescence assay measuring degradation of dsDNA substrate); conditions: 150 pM TREX1, 60 nM dsDNA substrate, 25 minutes at room temperature
# full length human TREX1, sequence (Q9NSU2 whole entry): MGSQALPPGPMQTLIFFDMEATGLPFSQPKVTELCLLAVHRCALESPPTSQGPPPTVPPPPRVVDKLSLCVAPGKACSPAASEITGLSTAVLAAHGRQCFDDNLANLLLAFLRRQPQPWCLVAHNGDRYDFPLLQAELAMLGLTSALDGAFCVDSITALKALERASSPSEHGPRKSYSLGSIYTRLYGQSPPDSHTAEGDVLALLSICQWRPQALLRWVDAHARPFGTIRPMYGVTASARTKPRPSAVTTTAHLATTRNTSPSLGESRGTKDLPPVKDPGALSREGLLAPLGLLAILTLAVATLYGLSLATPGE
# Protocol: Degradation of the dsDNA liberates free fluorophore to produce a fluorescent signal. Specifically, 7.5 μL of N-terminally His-Tev tagged full length human TREX1 (expressed in E. coli and purified in house) in reaction buffer (50 mM Tris (pH 7.4), 150 mM NaCl, 2 mM DTT, 0.1 mg/mL BSA, 0.01% (v/v) Tween-20 and 100 mM MgCl2 were added to a 384-well Black ProxiPlate Plus (Perkin Elmer) which already contained compound (150 nL) at varying concentrations as a 10 point dose-response in DMSO. To this was added 7.5 μL of dsDNA substrate (Strand A: 5′ TEX615/GCT AGG CAG 3′; Strand B: 5′ CTG CCT AGC/IAbRQSp (Integrated DNA Technologies)) in reaction buffer. Final concentrations were 150 pM TREX1, 60 nM dsDNA substrate in reaction buffer with 1.0% DMSO (v/v). After 25 minutes at room temperature, reactions were quenched by the addition of 5 μL of stop buffer (same as reaction buffer plus 200 mM EDTA). Final concentrations in the quenched reaction were 112.5 pM TREX1, 45 nM DNA and 50 mM EDTA in a volume of 20 μL. After a 5-minute incubation at room temperature, plates were read in a laser sourced Envision (Perkin-Elmer), measuring fluorescence at 615 nm following excitation w/570 nm light. IC50 values were calculated by comparing the measured fluorescence at 615 nm ratio relative to control wells pre-quenched w/stop buffer (100% inhibition) and no inhibitor (0% inhibition) controls as using non-linear least square four parameter fits and either Genedata or GraphPad Prism (GraphPad Software, Inc.).
# human TREX2 (residues M44-A279), sequence (Q9BQ50 whole entry, the tested form may be a part): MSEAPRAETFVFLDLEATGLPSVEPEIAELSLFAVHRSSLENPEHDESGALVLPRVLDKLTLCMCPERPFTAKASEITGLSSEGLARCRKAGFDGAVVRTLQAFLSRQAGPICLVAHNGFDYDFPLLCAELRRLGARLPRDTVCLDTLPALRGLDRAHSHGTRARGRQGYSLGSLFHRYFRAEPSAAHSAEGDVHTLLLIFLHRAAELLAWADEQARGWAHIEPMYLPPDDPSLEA
SMILES,IC50 [1],IC50 (full length human TREX1)
"Cn1c([C@H]2CCN(C(=O)c3ccc(Cl)cc3)C2)nc(C(=O)Nc2cnoc2)c(O)c1=O [Example 85, (S)-2-(1-(4-chlorobenzoyl)pyrrolidin-3-yl)-5-hydroxy-N-(isoxazol-4-yl)-1-methyl-6-oxo-1,6-dihydropyrimidine-4-carboxamide]",10000 to 100000 nM,100 to 1000 nM
"Cc1cc(Nc2cccc(C)n2)cc(-c2nc(C(=O)Nc3cnoc3)c(O)c(=O)n2C)c1 [Example 34, 5-hydroxy-N-(isoxazol-4-yl)-1-methyl-2-(3-methyl-5-((6-methylpyridin-2-yl)amino)phenyl)-6-oxo-1,6-dihydropyrimidine-4-carboxamide]",1000 to 10000 nM,100 to 1000 nM
"Cn1c(-c2cc(Cl)cc(Cl)c2)nc(C(=O)Nc2cnoc2)c(O)c1=O [Example 30, 2-(3,5-dichlorophenyl)-5-hydroxy-N-(isoxazol-4-yl)-1-methyl-6-oxo-1,6-dihydropyrimidine-4-carboxamide]",1000 to 10000 nM,100 to 1000 nM
"Cn1c(C2(COCc3ccccc3)CCCN(C(=O)OC(C)(C)C)C2)nc(C(=O)Nc2cnoc2)c(O)c1=O (stereo not shown) [Example 52, tert-butyl 3-((benzyloxy)methyl)-3-(5-hydroxy-4-(isoxazol-4-ylcarbamoyl)-1-methyl-6-oxo-1,6-dihydropyrimidin-2-yl)piperidine-1-carboxylate]",1000 to 10000 nM,100 to 1000 nM
"Cn1c(C2CCCN(C(=O)C3CCC(=O)NC3)C2)nc(C(=O)Nc2cnoc2)c(O)c1=O (stereo not shown) [Example 56, 5-hydroxy-N-(isoxazol-4-yl)-1-methyl-6-oxo-2-(1-(6-oxopiperidine-3-carbonyl)piperidin-3-yl)-1,6-dihydropyrimidine-4-carboxamide]",10000 to 100000 nM,100 to 1000 nM
"CN(C)C(=O)[C@H]1CCCN1c1nc(C(=O)Nc2cnoc2)c(O)c(=O)n1C [Example 110, (R)-2-(2-(dimethylcarbamoyl)pyrrolidin-1-yl)-5-hydroxy-N-(isoxazol-4-yl)-1-methyl-6-oxo-1,6-dihydropyrimidine-4-carboxamide]",10000 to 100000 nM,100 to 1000 nM
"Cn1c(-c2ccccc2-c2cccnc2)nc(C(=O)Nc2cnoc2)c(O)c1=O [Example 66, 5-hydroxy-N-(isoxazol-4-yl)-1-methyl-6-oxo-2-(2-(pyridin-3-yl)phenyl)-1,6-dihydropyrimidine-4-carboxamide]",10000 to 100000 nM,100 to 1000 nM
"Cn1nnc(-c2nc(C(=O)Nc3cnoc3)c(O)c(=O)n2C)c1CCO [Example 74, 5-hydroxy-2-(5-(2-hydroxyethyl)-1-methyl-1H-1,2,3-triazol-4-yl)-N-(isoxazol-4-yl)-1-methyl-6-oxo-1,6-dihydropyrimidine-4-carboxamide]",10000 to 100000 nM,1000 to 10000 nM
"C[C@@H](Cc1ccccc1)c1nc(C(=O)Nc2cnoc2)c(O)c(=O)n1C [Example 80, (S)-5-hydroxy-N-(isoxazol-4-yl)-1-methyl-6-oxo-2-(1-phenylpropan-2-yl)-1,6-dihydropyrimidine-4-carboxamide]",1000 to 10000 nM,< 100 nM
"Cc1cc(C)cc(-c2nc(C(=O)Nc3cnoc3)c(O)c(=O)n2C)c1 [Example 25, 2-(3,5-dimethylphenyl)-5-hydroxy-N-(isoxazol-4-yl)-1-methyl-6-oxo-1,6-dihydropyrimidine-4-carboxamide]",1000 to 10000 nM,100 to 1000 nM
"Cc1cc(Br)cc(-c2nc(C(=O)Nc3cnoc3)c(O)c(=O)n2C)c1 [Example 1, 2-(3-bromo-5-methylphenyl)-5-hydroxy-N-(isoxazol-4-yl)-1-methyl-6-oxo-1,6-dihydropyrimidine-4-carboxamide]",1000 to 10000 nM,< 100 nM
"Cn1c(N2CCC[C@H]2c2ccncc2)nc(C(=O)Nc2cnoc2)c(O)c1=O [Example 103, (S)-5-hydroxy-N-(isoxazol-4-yl)-1-methyl-6-oxo-2-(2-(pyridin-4-yl)pyrrolidin-1-yl)-1,6-dihydropyrimidine-4-carboxamide]",10000 to 100000 nM,100 to 1000 nM
"Cc1cc(-c2ccn(C)n2)cc(-c2nc(C(=O)Nc3cnoc3)c(O)c(=O)n2C)c1 [Example 35, 5-hydroxy-N-(isoxazol-4-yl)-1-methyl-2-(3-methyl-5-(1-methyl-1H-pyrazol-3-yl)phenyl)-6-oxo-1,6-dihydropyrimidine-4-carboxamide]",1000 to 10000 nM,100 to 1000 nM
"Cn1c(C2(NC(=O)OCc3ccccc3)CC2)nc(C(=O)Nc2cnoc2)c(O)c1=O [Example 7, benzyl (1-(5-hydroxy-4-(isoxazol-4-ylcarbamoyl)-1-methyl-6-oxo-1,6-dihydropyrimidin-2-yl)cyclopropyl)carbamate]",10000 to 100000 nM,100 to 1000 nM
"C[C@H]1CC[C@H](c2nc(C(=O)Nc3cnoc3)c(O)c(=O)n2C)CN1C(=O)c1ccc(Cl)c(Cl)c1 [Example 84, 2-((3S,6S)-1-(3,4-dichlorobenzoyl)-6-methylpiperidin-3-yl)-5-hydroxy-N-(isoxazol-4-yl)-1-methyl-6-oxo-1,6-dihydropyrimidine-4-carboxamide]",1000 to 10000 nM,< 100 nM
"Cn1c(C2CCCN(C(=O)c3cncnc3)C2)nc(C(=O)Nc2cnoc2)c(O)c1=O (stereo not shown) [Example 58, 5-hydroxy-N-(isoxazol-4-yl)-1-methyl-6-oxo-2-(1-(pyrimidine-5-carbonyl)piperidin-3-yl)-1,6-dihydropyrimidine-4-carboxamide]",1000 to 10000 nM,100 to 1000 nM
"Cc1cc(C(=O)NC2CCN(C)CC2)cc(-c2nc(C(=O)Nc3cnoc3)c(O)c(=O)n2C)c1 [Example 54, 5-hydroxy-N-(isoxazol-4-yl)-1-methyl-2-(3-methyl-5-((1-methylpiperidin-4-yl)carbamoyl)phenyl)-6-oxo-1,6-dihydropyrimidine-4-carboxamide]",10000 to 100000 nM,100 to 1000 nM
"Cc1cc(Nc2cnn(C)c2)cc(-c2nc(C(=O)Nc3cnoc3)c(O)c(=O)n2C)c1 [Example 32, 5-hydroxy-N-(isoxazol-4-yl)-1-methyl-2-(3-methyl-5-((1-methyl-1H-pyrazol-4-yl)amino)phenyl)-6-oxo-1,6-dihydropyrimidine-4-carboxamide]",1000 to 10000 nM,100 to 1000 nM
"Cn1c(C2CN(C(=O)OC(C)(C)C)C2)nc(C(=O)Nc2cnoc2)c(O)c1=O [Example 19, tert-butyl 3-(5-hydroxy-4-(isoxazol-4-ylcarbamoyl)-1-methyl-6-oxo-1,6-dihydropyrimidin-2-yl)azetidine-1-carboxylate]",> 100000 nM,1000 to 10000 nM
"Cn1c([C@H]2CCCCN2CCO)nc(C(=O)Nc2cnoc2)c(O)c1=O [Example 104, (R)-5-hydroxy-2-(1-(2-hydroxyethyl)piperidin-2-yl)-N-(isoxazol-4-yl)-1-methyl-6-oxo-1,6-dihydropyrimidine-4-carboxamide]",> 100000 nM,1000 to 10000 nM
"Cn1c(-c2cccc(Br)c2)nc(C(=O)Nc2cnoc2)c(O)c1=O [Example 10, 2-(3-bromophenyl)-5-hydroxy-N-(isoxazol-4-yl)-1-methyl-6-oxo-1,6-dihydropyrimidine-4-carboxamide]",1000 to 10000 nM,< 100 nM
CC(C)CNC(=O)N1CCCC(c2nc(C(=O)Nc3cnoc3)c(O)c(=O)n2C)C1 (stereo not shown) [Example 95],10000 to 100000 nM,100 to 1000 nM
"Cn1c(CC2CCN(C(=O)OC(C)(C)C)CC2)nc(C(=O)Nc2cnoc2)c(O)c1=O [Example 17, tert-butyl 4-((5-hydroxy-4-(isoxazol-4-ylcarbamoyl)-1-methyl-6-oxo-1,6-dihydropyrimidin-2-yl)methyl)piperidine-1-carboxylate]",10000 to 100000 nM,1000 to 10000 nM
